US20240099298A1, “BIOINSECTICIDAL COMPOSITIONS CONTAINING MONOTERPENES AND METHODS OF USE THEREOF” (priority 2017, published 2024)
≈ marks a conversion by molar mass, not a printed value.

How the values were obtained:
[1] = system: Aedes aegypti (Linnaeus) (mosquito); details: adult mosquito, exposed 30 minutes, mortality in 24 hours
Description: (§1) Median Lethal Concentration Tests. […] The species tested included Thrips (M. usitatus), spider mite (T. cinnabarinus), melon fly (B. cucuribitae), cockroach (B. lateralis), housefly (M. domestica), mosquito (A. aegypti), parasitic wasp (T. chilonis) and fruit fly (Drosophila melanogaster). After being exposed to the test chemicals for one hour, adult Thrips, spider mites, and roaches were transferred to another flask. In addition to fresh water, adult Thrips, spider mites, and roaches were then respectively fed with cowpea, fresh blade of eggplant, and peanut oil via filter. […] Mortality of melon fly was observed after three hours of exposure.

[2] = system: Bactrocera cucuribitae (Coquillett) (melon fly); details: melon fly
Description: as §1

[3] = system: Blatta lateralis (Walker) (cockroach); details: cockroach second instar nymphs, exposed one hour
Description: as §1

[4] = system: Musca domestica (Linnaeus) (housefly); details: adult housefly, exposed one hour, mortality in 24 hours
Description: as §1

[5] = system: Tetranychus cinnabarinus (Boisduval) (spider mites); details: spider mites, exposed one hour
Description: as §1

M. domestica (housefly) = experiment: Median lethal time (LT50) test, housefly; format: in vivo, Musca domestica
Description: (§2) All treatments and controls were in triplicate.
Toxicity of Monoterpenes as Fumigants. […] Therefore, to determine how fast the monoterpenes act as fumigants, it was necessary to determine their LT50 values for the target organisms.

Aedes aegypti (mosquito) = experiment: Median knockdown concentration (KC50) test, mosquito; format: in vivo
Description: as §2
(§3) Knockdown Activity of Monoterpenes.

[6] = system: Musca domestica (housefly); experiment: Median knockdown concentration (KC50) test, housefly; format: in vivo; details: Musca domestica
Description: as §2, §3

[7] = system: T. chilonis (parasitic wasp); details: non-target parasitic wasp, mortality after 15 minutes of exposure
Description: Insect Egg Parasitic Wasp (Natural Enemy). […] Both species were purchased from a commercial source. One- to two-day-old adults (after eclosion) were used for fumigation tests.
as §1

[8] = molecular target: T1, recombinant gamma-aminobutyric acid receptor-associated protein (rGABARAP) (Frankliniella occidentalis, UniProt A0A6J1T1Q2); experiment: Microscale thermophoresis (MST) binding to rGABARAP; details: rGABARAP; read-out: Kd value, MST
T1 sequence (A0A6J1T1Q2 1-118): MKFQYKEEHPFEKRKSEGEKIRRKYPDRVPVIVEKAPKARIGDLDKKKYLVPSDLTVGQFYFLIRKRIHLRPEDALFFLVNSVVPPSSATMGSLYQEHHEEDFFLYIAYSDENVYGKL
Description: (§4) Preparation of recombinant GABARAP (rGABARAP) protein. RNA was extracted from F. occidentalis and cDNA was then synthesized. GABARAP (GenBank accession No. LOC113211372) was obtained after PCR amplification (Stafford-Banks, et al. (2014) Plos One 9:e94447).
Interaction between ME and rGABARAP. A Nano Temper Monolith NT.115 MST system (Nano Temper, Munich, Germany) was used to assess the binding affinities between the target compounds and rGABARAP according to the published procedures (Zan, et al. (2020) Journal of Agricultural and Food Chemistry 68:6280-6285). Spinosyn A was used as a chemical positive control. Spinosyn A (≥1 nM) can trigger a change of the Cl^− current of insect neuron GABAAR, which is considered to be an insecticidal action mechanism of spinosyn A (Watson (2001) Pesticide Biochemistry and Physiology 71:20-28). Ovalbumin (OVA) (Sangon Biotech, Shanghai, China) is a control protein consisting of 385 amino acid residues. The interaction between OVA and ME was used as a protein control experiment (Huntington, et al. (1995) Protein Science 4:613-621).

[9] = molecular target: T1, recombinant gamma-aminobutyric acid receptor-associated protein (rGABARAP); experiment: Isothermal titration calorimetry (ITC) binding to rGABARAP; details: 25° C., pH 7.4
Protocol: as §4
The isothermal titration thermal binding measurements were performed with an ITC-200 calorimeter (GE Healthcare, Boston, MA) at 25° C. in a buffer containing 50 mM Tris-HCl and 100 mM NaCl (pH 7.4). […] The MicroCal Origin 7.0 software system was used for data processing. The first run was a pre-run and was excluded from the final data. The amount of protein in the sample pool was constant. […] The experimental bimolecular interaction data from the 18 drops were used to calculate the dissociation constant. The dissociation constant […] was calculated as 1/K (Li, et al. (2018) RSC Advances 8:18952-18958).

[10] = T 22-25 °C; cited from earlier work
adult T. palmi = details: cited from earlier work

Structure (SMILES): C=CC(C)(O)CCC=C(C)C (centres unmarked) [Linalool, 3,7-dimethylocta-1,6-dien-3-o1]
- LC50 (fiducial limits) [1]: >243 µg/mL
- LC90 (fiducial limits) [1]: >243 µg/mL
- LC50 (fiducial limits) [2]: >243 µg/mL
- LC90 (fiducial limits) [2]: >243 µg/mL
- LC50 (fiducial limits) [3]: 345 µg/mL (≈ 2240 µM)
- LC90 (fiducial limits) [3]: 1700 µg/mL (≈ 11000 µM)
- LC50 (fiducial limits) [4]: 30.6 µg/mL (≈ 198 µM)
- LC90 (fiducial limits) [4]: 176 µg/mL (≈ 1140 µM)
- LC50 (fiducial limits) [5]: 550 µg/mL (≈ 3570 µM)
- LC90 (fiducial limits) [5]: 4330 µg/mL (≈ 28100 µM)
- LT50 (fiducial limits) (M. domestica (housefly)): 1.28 h
- time within which the insects responded (Aedes aegypti (mosquito)): ≤ 20 min
- KC50 (fiducial limits) (Aedes aegypti (mosquito); 20 Minutes): >243 µg/mL
- KC50 (fiducial limits) (Aedes aegypti (mosquito); 30 Minutes): 69.0 µg/mL
- KC50 (fiducial limits) ([6]; 20 Minutes): >243 µg/mL
- KC50 (fiducial limits) ([6]; 30 Minutes): 192 µg/mL
- LC50 (fiducial limits) against T. chilonis [7]: 2.88 µg/mL (≈ 18.7 µM)
- LC90 (fiducial limits) against T. chilonis [7]: 6.24 µg/mL (≈ 40.5 µM)
- Kd [8]: 12.3 µM
- Kd [9]: 6.89 µM
- Vp (Pa)/T (° C.) [10]: 21.28/22-25 Pa
- LC50, fumigation toxicity (adult T. palmi): 5.5 µg/mL (≈ 35.7 µM)
- fold more effective than dichlorvos (adult T. palmi): 15.2 fold
